Data from the NIST ThermoML archive (doi:10.1021/je301353z).

Assay: xn = mol fraction of the nth substance listed
Conditions: 101 kPa, Liquid; for speed of sound: Sing-around technique in a fixed-path interferometer; for mass density: Vibrating tube method

c1ccncc1 [pyridine] + CN1CCCC1=O
Conditions	mass density, 293.15 K [kg/m3]	mass density, 298.15 K [kg/m3]	mass density, 303.15 K [kg/m3]	mass density, 308.15 K [kg/m3]	speed of sound, 293.15 K [m/s]	speed of sound, 298.15 K [m/s]	speed of sound, 303.15 K [m/s]	speed of sound, 308.15 K [m/s]
x2 = 0.1276	994.55	989.82	985.09	980.3	1467.8	1445	1425.5	1405.3
x2 = 0.1779	998.64	993.95	989.28	984.53	1478.4	1455.9	1436.8	1416.4
x2 = 0.2348	1003	998.35	993.72	988.98	1490.6	1468.4	1449.4	1429.1
x2 = 0.2664	1005.29	1000.65	996.04	991.33	1497.6	1475.5	1456.2	1436.2
x2 = 0.3291	1009.56	1004.94	1000.35	995.65	1511.1	1489	1469.8	1449.7
x2 = 0.3707	1012.2	1007.56	1002.99	998.31	1519.6	1498	1478.9	1458.8
x2 = 0.4328	1015.86	1011.21	1006.65	1001.96	1532.2	1510.7	1491.6	1471.5
x2 = 0.4749	1018.16	1013.51	1008.96	1004.25	1540.4	1518.6	1499.5	1479.4
x2 = 0.5215	1020.5	1015.82	1011.28	1006.63	1548.4	1527	1508.3	1487.9
x2 = 0.5647	1022.48	1017.8	1013.27	1008.63	1555.7	1534.4	1515.3	1495.4
x2 = 0.6364	1025.43	1020.74	1016.23	1011.56	1565.6	1544.5	1525.6	1505.9
x2 = 0.6778	1026.91	1022.19	1017.71	1013.05	1569.8	1549	1530.8	1510.5
x2 = 0.7312	1028.58	1023.87	1019.36	1014.76	1574.5	1553.6	1535.6	1515.4
x2 = 0.7701	1029.65	1024.9	1020.4	1015.79	1576.5	1556.2	1537.8	1518.1
x2 = 0.8321	1031.09	1026.29	1021.76	1017.16	1577.6	1557.6	1539.3	1519.7
x2 = 0.8711	1031.8	1026.99	1022.43	1017.79	1576.7	1556.8	1538.9	1519.1
x2 = 0.9011	1032.27	1027.41	1022.83	1018.17	1575.4	1555.7	1537.4	1517.6
x2 = 0.9312	1032.65	1027.76	1023.14	1018.45	1573.3	1553.5	1535.4	1515.6
